Assays:
MCF-7-MKP3 xenografts = assay: Xenograft growth of MCF-7 vector control and MKP3-transfected cells in athymic nude mice; assay type: in vivo
Procedure: MCF-7 vector control and MKP3-transfected cells were established as xenografts in ovariectomized 5- to 6-week-old BALB/c athymic nude mice (Harlan Sprague Dawley, Madison, Wis.) supplemented with 0.25-mg 21-day-release E2 pellets (Innovative Research, Sarasota, Fla.) by inoculating the mice subcutaneously with 5×10^6 cells, as described previously (Osborne et al., 1995). […] Tumor growth was assessed and tumor volumes were measured as described previously (Osborne et al., 1995). Mice were anesthetized with isoflurane before tumor removal; tumor tissues were kept at […] for later analyses. Animal care was in accordance with institutional guidelines.
To analyze the endocrine sensitivity of the MKP3-overexpressing cells in more detail in vivo, the ability of MCF-7-vector control 1 and MCF-7-MKP3-2 transfectants to form tumors in athymic mice was examined. Xenografts were established in ovariectomized mice supplemented with estrogen for 21 days. […] This was examined by fitting the data in an exponential growth model, and testing whether growth rates were different between the groups; the analyses were done separately for estrogen-treated (FIG. 4C, left panel) and Tam-treated animals (right panel). There was no difference in the estrogen-stimulated growth of the MCF-7-vector control and MKP3-overexpressing cells (P=0.52).

MKP3 = molecular target: T1, MKP3 (Homo sapiens, UniProt Q16828); assay: Phosphatase assay with pNPP on V5 immunoprecipitates of treated MKP3 cells; assay type: biochemical; conditions: MKP3 transfectants treated 2 hours; relative to control-treated (intermediate)
T1 construct: expressed in transfected cells
T1 sequence (Q16828 1-381): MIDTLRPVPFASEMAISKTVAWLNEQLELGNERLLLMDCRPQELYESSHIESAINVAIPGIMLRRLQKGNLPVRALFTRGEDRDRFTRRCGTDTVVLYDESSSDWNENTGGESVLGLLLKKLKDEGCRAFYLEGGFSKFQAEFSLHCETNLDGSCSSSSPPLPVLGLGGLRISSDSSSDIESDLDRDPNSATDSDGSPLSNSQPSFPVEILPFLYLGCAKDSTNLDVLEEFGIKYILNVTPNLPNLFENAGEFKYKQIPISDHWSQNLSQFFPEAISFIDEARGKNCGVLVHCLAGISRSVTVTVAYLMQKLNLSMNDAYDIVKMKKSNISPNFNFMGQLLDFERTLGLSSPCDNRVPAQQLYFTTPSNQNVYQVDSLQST
Procedure: MKP3-overexpressing cells and control vector transfected cells were treated as described above with ethanol, E2, or 4-OH-Tam, and lysed in buffer B containing 20 mM Tris-HCl (pH 7.0), 150 mM NaCl, 1% Triton X-100, 0.25 M sucrose, 1 mM EDTA, 1 mM EGTA, 0.1% β-mercaptoethanol, 1 mM PMSF, and 1 μg/ml leupeptin. The cell lysates were cleared and the protein concentrations were determined as detailed above. 300 μg of cell lysate at 1 μg/μl was immunoprecipitated by the addition of 1 μg anti-V5 antiserum, and 20 μl 50% protein G slurry. […] The reactions were then quenched by the addition of 20 μl 5N NaOH, and pNPP hydrolysis was measured at 405 nm. […] The amount of product p-nitrophenol was determined from the absorbance at 405 nm. […]
The observed changes in pMAPK levels in MKP3 overexpressing cells was further characterized. […] Using the artificial substrate pNPP to measure endogenous phosphatase activity, there was an inverse relationship between measured phosphatase activity and pMAPK levels in the MKP3 transfectants. […] There were no observed changes in the ability of MKP3 to bind to MAPK, as measured by co-immunoprecipitation and immunoblot analysis (FIG. 5H). When the levels of MKP3-bound ERK2 were compared between the different hormonal treatments, no differences were detected (C, E, T, IP:V5 lanes). […]

EBP50 = assay: Immunoblot of EBP50 in MCF-7 cells; assay type: cell-based, human; conditions: 24 hours
Procedure: In Panel B, immunoprecipitation of E or T treated MCF-7 cells was performed followed by immunoblot analysis.

Structure (SMILES)	tumor growth rate, MKP3-expressing versus vector control xenografts (MCF-7-MKP3 xenografts; estrogen withdrawal plus tamoxifen citrate 500 μg/animal s.c. 5 days/week, P=0.047)	MKP3 phosphatase activity (pNPP hydrolysis) (MKP3)	tumor growth rate, MKP3-overexpressing versus vector control xenografts (MCF-7-MKP3 xenografts; estrogen-treated animals, P=0.52)	EBP50 levels (EBP50)
CC/C(=C(\c1ccccc1)c1ccc(OCCN(C)C)cc1)c1ccccc1 [Tam, tamoxifen]	significantly increased	lowest	–	–
C[C@]12CC[C@@H]3c4ccc(O)cc4CC[C@H]3[C@@H]1CC[C@@H]2O [E2, 17β-Estradiol]	–	highest	no difference	similarly induced
